The term inhibition denotes how much of the control response was suppressed. High values mean a response far below the control, low ones a response near the control.

The subject of one assay is rat heart. Briefly: Effect on incidence of arrhythmia caused by ischemia and following reperfusion in rat heart. The format is in vivo. Conditions: 1 hour before ligation, until 10 minutes after reperfusion. On the procedure:
Effect on incidence of arrhythmia caused by ischemia and following reperfusion in rat heart
Male Sprague Dawley rats (Japan Clea) of 9 to 10 weeks old were anesthetized with 50 mg/kg (i.p.) of sodium pentobarbital. The heart was exposed by a left thoractomy under artificial ventilation with room air and silk suture was placed under the main left coronary artery (LAD) to ligate for 5 minutes. Then, the ligature was released again for reperfusion. The incidence of ventricular tachycardia (VT), ventricular fibrillation (VF) and cardiac arrest (CA) caused until 10 minutes after reperfusion were noted. Medicines (compounds obtained in the above Examples) were orally administered (5 ml/kg) at 1 hour before tightening the ligature. The effect of medicines were estimated in comparison with the frequency of a group received a vehicle according to X^2 -test.

Another assay has as its target calmodulin (Bos taurus, UniProt P62157). Briefly: Calmodulin inhibitory activity (calmodulin-activated cyclic nucleotide phosphodiesterase, [3H]cGMP). The assay is classed as biochemical. Particulars: 10^-5 M.
In assay [1] the test system is spontaneous hypertensive rat (SHR). Briefly: Hypotensive activity in spontaneous hypertensive rat (SHR), Plethysmograph method. The assay is classed as in vivo. Particulars: SHR male rats, oral, 100 mg/kg; for Change of blood pressure, 1 hour: 1 hour after administration; for Change of blood pressure, 5 hours: 5 hours after administration. On the procedure: Hypotensive activity in spontaneous hypertensive rat (SHR)
SHR male rats of twenty weeks old were used. They were warmed in an incubator at 37° C. for 5 minutes and the measurement was conducted according to Plethysmograph method. Medicines (the compounds in the above Examples) were suspended in gum arabic-water and were orally administered in an amount of 2.5 ml/kg. Blood pressure was measured before administration of medicines, at 1 hour and at 5 hours after administration, and the change of the value from that before administration was determined, respectively.

The test system of a further assay is rat kidneys. Briefly: Effect on acute renal failure caused by ischemia and following reperfusion in rat kidneys. The assay is classed as in vivo. Conditions: 1 hour before occlusion, 20 hours after reperfusion. On the procedure: Effect on acute renal failure caused by ischemia and following reperfusion in rat kidneys.
SD rats (male) of 6 to 7 weeks old were anesthetized with pentobarbital sodium (50 mg/kg, i.p.) and bilateral renal arteries were ligated. After 45 minutes, a clip was removed to reperfuse. After 20 hours, blood was collected from abdominal aorta under anesthesia with pentobarbital sodium and blood urea nitrogen (BUN) was measured. Medicines (compounds obtained in the above Examples) were orally administered (5 ml/kg) 1 hour before occulusion of renal artery.

Assay [2] concerns experimental ischemic disorders. Conditions: in vivo; cited from earlier work.
Assay [3] relates to endothelial cells (HUVE cells). The experiment in a line: Effect on growth of endothelial cells (HUVE cells, basic FGF, MTT method). The format is cell-based. Particulars: Homo sapiens, Endothelial cell, 72 h, basic FGF 2 ng/ml, 3 days, read-out: IC50 (concentration inhibiting growth of endotherial cells by 50%). On the procedure: This experiment was conducted by using endothelial cells (HUVE cells) obtained from human umbilical vein. […] After 24 hours, human recombinant basic FGF (endotherial cell growth factor) was added thereto in the final concentration of 2 ng/ml and a test compound was further added, followed by cultivation for 3 days.
For orientation: Formazan colour is commonly taken as a measure of viable cells.

`CS(=O)(=O)NCCSc1cccc2nccn12` [Compound 1, 5-[2-(methylsulfonylamino)ethylthio]imidazo[1,2-a]pyridine]: in the assay on rat heart (10 mg/kg oral), the “CA (Frequency), cardiac arrest” value is 1/4; the “VF (Frequency), ventricular fibrillation” value was 2/4; the “VT (Frequency), ventricular tachycardia” value is on record as 2/4. Moreover, in the assay with rat heart (30 mg/kg oral), the “CA (Frequency), cardiac arrest” value is on record as 0/4; the “VF (Frequency), ventricular fibrillation” value is listed as 1/4; the “VT (Frequency), ventricular tachycardia” value was 1/4. The molecule further gave an inhibition at 10 µM against calmodulin of 94%. Further, in assay [1], the “Change of blood pressure, 1 hour” value is listed as -11.2 mmHg and the “Change of blood pressure, 5 hours” value is -11.5 mmHg. This molecule also gave a Blood urea nitrogen in the assay with rat kidneys (10 mg/kg oral) of 83.3 ± 20.4 mg/dL. This molecule yielded a Blood urea nitrogen with rat kidneys (30 mg/kg oral) of 71.1 ± 11.4 mg/dL. Further, the Blood urea nitrogen in the assay on rat kidneys (50 mg/kg oral) amounted to 65.6 ± 5.1 mg/dL.
As for `CNC(=O)OCCSc1cccc2nccn12` [Compound 118, 5-[2-(methylcarbamoyloxy)ethylthio]imidazo[1,2-a]pyridine], in the assay on rat heart (30 mg/kg oral), the “CA (Frequency), cardiac arrest” value was 0/3; the “VF (Frequency), ventricular fibrillation” value is on record as 1/3; the “VT (Frequency), ventricular tachycardia” value is listed as 1/3. Also, testing at 10 µM at calmodulin gave an inhibition of 74%.
For the molecule `CN(C)CCCN1c2ccccc2Sc2ccc(Cl)cc21` [chlorpromazine], the “effect on experimental ischemic disorders (in words)” value in assay [2] is given as “effective for experimental ischemic disorders”.
`CC(=O)Nc1ccc(S(=O)(=O)NCCSc2cccc3nccn23)cc1` [Compound 32, 5-[2-[4-(Acetamido)phenylsulfonylamino]ethylthio]imidazo[1,2-a]pyridine]: in the assay on rat heart (30 mg/kg oral), the “CA (Frequency), cardiac arrest” value is 1/3; the “VF (Frequency), ventricular fibrillation” value was 1/3; the “VT (Frequency), ventricular tachycardia” value is given as 1/3. At calmodulin, the inhibition at 10 µM was 62%.
The molecule `O=S(=O)(NCCCSc1cccc2nccn12)C(F)(F)F` [Compound 28, 5-[3-(Trifluoromethylsulfonylamino)propylthio]imidazo[1,2-a]pyridine] yielded an inhibition at 10 µM at calmodulin of 72%. In assay [1], the “Change of blood pressure, 1 hour” value is on record as -13.5 mmHg and the “Change of blood pressure, 5 hours” value was -43.0 mmHg.
For the molecule `CC(C)OC(=O)NCCSc1cccc2nccn12` [21'], in assay [3], the IC50 was determined as 5 µM.
On to `CS(=O)(=O)NCCCOc1cccc2nccn12` [Compound 64, 5-[3-(methylsulfonylamino)propyloxy]imidazo[1,2-a]pyridine], for which, in the assay on rat heart (30 mg/kg oral), the “CA (Frequency), cardiac arrest” value is recorded as 1/3; the “VF (Frequency), ventricular fibrillation” value is 1/3; the “VT (Frequency), ventricular tachycardia” value is reported as 1/3. The same molecule came in with an inhibition at 10 µM against calmodulin of 82%. For the same molecule, in assay [1], the “Change of blood pressure, 1 hour” value is on record as -31.0 mmHg and the “Change of blood pressure, 5 hours” value is recorded as -27.0 mmHg.
For `O=S(=O)(NCCCCOc1cccc2nccn12)C(F)(F)F` [Compound 67, 5-[4-(Trifluoromethylsulfonylamino)butyloxy]imidazo[1,2-a]pyridine], the inhibition at 10 µM against calmodulin stood at 72%. In addition, in assay [1], the “Change of blood pressure, 1 hour” value is given as -15.0 mmHg and the “Change of blood pressure, 5 hours” value is given as -22.0 mmHg.
Molecule `O=S(=O)(NCCCCCOc1cccc2nccn12)C(F)(F)F` [Compound 69, 5-[5-(Trifluoromethylsulfonylamino)pentyloxy]imidazo[1,2-a]pyridine] yielded an inhibition at 10 µM against calmodulin of 57%. Also, in assay [1], the “Change of blood pressure, 1 hour” value is recorded as -7.0 mmHg and the “Change of blood pressure, 5 hours” value is -32.0 mmHg.
Turning to `O=C(NCc1ccncc1)OCCSc1cccc2nccn12` [Compound 127, 5-[2-[4-(Pyridyl)methylcarbamoyloxy]ethylthio]imidazo[1,2-a]pyridine], in the assay with rat heart (30 mg/kg oral), the “CA (Frequency), cardiac arrest” value is 0/3; the “VF (Frequency), ventricular fibrillation” value is reported as 1/3; the “VT (Frequency), ventricular tachycardia” value is on record as 1/3. The molecule further displayed an inhibition at 10 µM against calmodulin of 57%.

These data come from US5244908A, “Imidazopyridine derivatives and their pharmaceutical use” (Takeda Chemical Industries, Ltd., priority 1990, dated 1993).
